Results: the supplement of paper PMC11451515

Experiments:
Settings in all cases: 48 h
NOMO1 [1] = test: cell viability relative to DMSO control; higher = less cytotoxic
How it was run: (§1)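 Viability is expressed as a percentage of DMSO wells within each plate, and cell-free wells serve as background. Seeding densities in the 1536-well plates (5 μl) were 500 cells/well for NOMO1 or SEM leukemia cells and 1000 cells/well for P12-Ichikawa. Each line was adapted for at least four passages in each medium. Library compounds in DMSO were pin-dosed at 47 μM to 0.79 nM (11 points, threefold), and CellTiter-Glo One luminescence was read after 48 h at 37°C.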

P12-Ichikawa [2] = test: as above
How it was run: as §1

SEM cells [3] = test: as above
How it was run: as §1

NOMO1 [4] = test: AUC of viability dose-response curve (% viability x log10 dose units); higher = less sensitive
How it was run: (§2)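 Area under the curve was integrated by trapezoidal rule from a log-logistic fit of normalised viability, with curves exceeding full viability scaled and quality-control failures removed. The fit had four parameters over log10 doses. Viability came from CellTiter-Glo One luminescence, normalised per plate to DMSO and cell-free wells, after leukemia cells adapted to each medium (500 or 1000 cells/well, 1536-well plates) were exposed to library compounds in DMSO for 48 h at 37°C. The 11 threefold doses ran from 47 μM to 0.79 nM.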

P12-Ichikawa [5] = test: as above
How it was run: as §2

SEM cells [6] = test: as above
How it was run: as §2

COC(=O)[C@H](Cc1ccccc1)NC(=O)[C@@H](N)CC(=O)O
cell viability [%]
Settings	NOMO1 [1]	P12-Ichikawa [2]	SEM cells [3]
HPLM + 10% dialyzed FBS, 0.000781 µM	110	112	128
HPLM + 10% dialyzed FBS, 0.00234 µM	124	119	106
HPLM + 10% dialyzed FBS, 0.00702 µM	116	120	111
HPLM + 10% dialyzed FBS, 0.0211 µM	112	115	103
HPLM + 10% dialyzed FBS, 0.0632 µM	128	119	130
HPLM + 10% dialyzed FBS, 0.19 µM	115	108	110
HPLM + 10% dialyzed FBS, 0.569 µM	113	112	126
HPLM + 10% dialyzed FBS, 1.71 µM	112	112	119
HPLM + 10% dialyzed FBS, 5.12 µM	93.6	106	103
HPLM + 10% dialyzed FBS, 15.4 µM	96.1	101	120
HPLM + 10% dialyzed FBS, 46.1 µM	94.9	100	116
RPMI 5 mM glucose + 10% FBS, 0.000781 µM	108	110	125
RPMI 5 mM glucose + 10% FBS, 0.00234 µM	121	110	98.5
RPMI 5 mM glucose + 10% FBS, 0.00702 µM	125	113	121
RPMI 5 mM glucose + 10% FBS, 0.0211 µM	122	119	112
RPMI 5 mM glucose + 10% FBS, 0.0632 µM	110	115	122
RPMI 5 mM glucose + 10% FBS, 0.19 µM	126	125	118
RPMI 5 mM glucose + 10% FBS, 0.569 µM	115	107	128
RPMI 5 mM glucose + 10% FBS, 1.71 µM	107	109	119
RPMI 5 mM glucose + 10% FBS, 5.12 µM	112	102	100
RPMI 5 mM glucose + 10% FBS, 15.4 µM	105	102	123
RPMI 5 mM glucose + 10% FBS, 46.1 µM	108	108	116
RPMI 5 mM glucose + 10% dialyzed FBS, 0.000781 µM	126	114	124
RPMI 5 mM glucose + 10% dialyzed FBS, 0.00234 µM	117	109	106
RPMI 5 mM glucose + 10% dialyzed FBS, 0.00702 µM	120	125	104
RPMI 5 mM glucose + 10% dialyzed FBS, 0.0211 µM	112	112	107
RPMI 5 mM glucose + 10% dialyzed FBS, 0.0632 µM	112	120	123
RPMI 5 mM glucose + 10% dialyzed FBS, 0.19 µM	125	110	122
RPMI 5 mM glucose + 10% dialyzed FBS, 0.569 µM	106	112	111
RPMI 5 mM glucose + 10% dialyzed FBS, 1.71 µM	122	110	116
RPMI 5 mM glucose + 10% dialyzed FBS, 5.12 µM	70.4	107	98.3
RPMI 5 mM glucose + 10% dialyzed FBS, 15.4 µM	116	104	110
RPMI 5 mM glucose + 10% dialyzed FBS, 46.1 µM	108	101	104

AUC of viability dose-response curve
Settings	NOMO1 [4]	P12-Ichikawa [5]	SEM cells [6]
HPLM + 10% dialyzed FBS	453	454	476
RPMI 5 mM glucose + 10% FBS	461	459	472
RPMI 5 mM glucose + 10% dialyzed FBS	437	458	467

N#Cc1c(N(CC(=O)[O-])CC(=O)[O-])sc(C(=O)[O-])c1CC(=O)[O-].O.O.O.O.O.O.O.[Sr+2].[Sr+2]
cell viability [%]
Settings	HPLM + 10% dialyzed FBS	RPMI 5 mM glucose + 10% FBS	RPMI 5 mM glucose + 10% dialyzed FBS
NOMO1 [1], 0.000781 µM	113	–	–
NOMO1 [1], 0.00234 µM	123	–	–
NOMO1 [1], 0.00702 µM	150	–	–
NOMO1 [1], 0.0211 µM	130	–	–
NOMO1 [1], 0.0632 µM	137	–	–
NOMO1 [1], 0.19 µM	129	–	–
NOMO1 [1], 0.569 µM	148	–	–
NOMO1 [1], 1.71 µM	123	–	–
NOMO1 [1], 5.12 µM	138	–	–
NOMO1 [1], 15.4 µM	124	–	–
NOMO1 [1], 46.1 µM	112	–	–
SEM cells [3], 0.000781 µM	111	117	111
SEM cells [3], 0.00234 µM	113	124	107
SEM cells [3], 0.00702 µM	122	131	123
SEM cells [3], 0.0211 µM	111	138	121
SEM cells [3], 0.0632 µM	117	149	129
SEM cells [3], 0.19 µM	130	146	131
SEM cells [3], 0.569 µM	127	153	134
SEM cells [3], 1.71 µM	132	132	128
SEM cells [3], 5.12 µM	144	143	112
SEM cells [3], 15.4 µM	103	124	89.3
SEM cells [3], 46.1 µM	87.9	102	67.9

AUC of viability dose-response curve
Settings	NOMO1 [4]	P12-Ichikawa [5]	SEM cells [6]
HPLM + 10% dialyzed FBS	467	463	462
RPMI 5 mM glucose + 10% FBS	472	458	467
RPMI 5 mM glucose + 10% dialyzed FBS	472	456	449

CN(C)CCc1c[nH]c2ccc(Cn3cncn3)cc12
cell viability [%]
Settings	NOMO1 [1]	P12-Ichikawa [2]	SEM cells [3]
HPLM + 10% dialyzed FBS, 0.000781 µM	93.7	96.3	76.1
HPLM + 10% dialyzed FBS, 0.00234 µM	103	95	88.7
HPLM + 10% dialyzed FBS, 0.00702 µM	105	107	97.4
HPLM + 10% dialyzed FBS, 0.0211 µM	102	101	96.4
HPLM + 10% dialyzed FBS, 0.0632 µM	115	107	98
HPLM + 10% dialyzed FBS, 0.19 µM	77.6	97	48.5
HPLM + 10% dialyzed FBS, 0.569 µM	86.2	101	55
HPLM + 10% dialyzed FBS, 1.71 µM	18.3	22.8	23
HPLM + 10% dialyzed FBS, 5.12 µM	9.15	6.71	9.54
HPLM + 10% dialyzed FBS, 15.4 µM	6.34	7.05	8.01
HPLM + 10% dialyzed FBS, 46.1 µM	3.57	6.29	7.53
RPMI 5 mM glucose + 10% FBS, 0.000781 µM	84.7	92	86
RPMI 5 mM glucose + 10% FBS, 0.00234 µM	91.7	101	91
RPMI 5 mM glucose + 10% FBS, 0.00702 µM	89.8	91.4	86.9
RPMI 5 mM glucose + 10% FBS, 0.0211 µM	87.1	105	84.9
RPMI 5 mM glucose + 10% FBS, 0.0632 µM	91.5	105	75.8
RPMI 5 mM glucose + 10% FBS, 0.19 µM	65.3	69.3	30.7
RPMI 5 mM glucose + 10% FBS, 0.569 µM	82.4	91.1	36.3
RPMI 5 mM glucose + 10% FBS, 1.71 µM	17.4	30.9	10.4
RPMI 5 mM glucose + 10% FBS, 5.12 µM	7.32	8.08	7.9
RPMI 5 mM glucose + 10% FBS, 15.4 µM	5.18	6.52	7.16
RPMI 5 mM glucose + 10% FBS, 46.1 µM	3.92	4.97	6.13
RPMI 5 mM glucose + 10% dialyzed FBS, 0.000781 µM	94.9	93.7	91.4
RPMI 5 mM glucose + 10% dialyzed FBS, 0.00234 µM	93.5	89.5	96.1
RPMI 5 mM glucose + 10% dialyzed FBS, 0.00702 µM	98.1	88.3	88.9
RPMI 5 mM glucose + 10% dialyzed FBS, 0.0211 µM	106	92.4	97.5
RPMI 5 mM glucose + 10% dialyzed FBS, 0.0632 µM	92.8	97.3	79.3
RPMI 5 mM glucose + 10% dialyzed FBS, 0.19 µM	78.8	68.3	43.4
RPMI 5 mM glucose + 10% dialyzed FBS, 0.569 µM	86.1	76.5	50.7
RPMI 5 mM glucose + 10% dialyzed FBS, 1.71 µM	32	22.3	18.2
RPMI 5 mM glucose + 10% dialyzed FBS, 5.12 µM	10.7	7.34	9.37
RPMI 5 mM glucose + 10% dialyzed FBS, 15.4 µM	5.4	6.02	8.33
RPMI 5 mM glucose + 10% dialyzed FBS, 46.1 µM	4.44	5.62	6.69

AUC of viability dose-response curve
Settings	NOMO1 [4]	P12-Ichikawa [5]	SEM cells [6]
HPLM + 10% dialyzed FBS	318	329	267
RPMI 5 mM glucose + 10% FBS	277	312	226
RPMI 5 mM glucose + 10% dialyzed FBS	311	286	257
